According to patent US20100125059A1, “1-BIARYLAZETIDINONE DERIVATIVE” (Teijin Pharma Limited, priority 2007, published 2010):
Like-named read-outs stand apart in the source and are kept apart here.

Experiments:
Caco-2 cells = assay: Cholesterol absorption inhibition assay (in vitro), [14C] cholesterol mixed micelles; type: cell-based; details: Homo sapiens, 24 hours, read-out: cholesterol absorption inhibitory activity; for inhibition at 12.5 µM: concentration of 12.5 μM; for inhibition at 10 µM: concentration of 10 μM
Experimental: This assay measures cholesterol absorption inhibitory activity by adding mixed micelles containing [^14C] cholesterol to cells and measuring cholesterol taken in the cells as oleic acid cholesteryl ester. The assay is conducted after Caco-2 cells are seeded on multi-well plates and cultured (culture medium: DMEM containing 10% fetal bovine serum, 1% non-essential amino acids, 1% penicillin, and 1% streptomycin) for 2 weeks. To each well, the micelle solution (in an amount required to provide the following final concentrations: 600 μM of sodium oleate, 50 μM of phosphatidyl choline, 5 mM of sodium taurocholate, 2.5 μM of cholesterol, and 2.5 μM of [^14C] cholesterol) and a test compound solution (in an amount required to provide the final concentration of 0.5 to 25 μM) or a solvent as a control are added, and incubation is started at 37° C. 24 hours later, the culture medium is removed, and the lipid component is extracted with hexane/2-propanol (3:2, v/v) and applied onto thin-layer silica gel plates. After drying, each plate is eluted with a mixture of hexane, diethyl ether, and acetic acid in a ratio of 83:16:1. The plates are photoexposed on imaging plates and analyzed using BAS-2500 (FUJIFILM). The amounts of light exposure of the areas corresponding to the cholesteryl ester are calculated. Background is measured using a blank space of the plate. Inhibition rates are calculated using values obtained by subtracting the background values from both values of the control and the test sample, respectively, in accordance with the following equation. A test value is calculated as a percentage (%) with respect to the control.
In the Equation 1, A is the control group, BG is a background, and B is the test compound.
The following results were obtained from the measurement by this method on cholesterol absorption inhibitory activity of the compounds of the present invention. The following results were obtained by the evaluation using concentrations of 10 μM and/or 12.5 μM.

[1] = tested on: hamsters fed a high cholesterol diet; assay: Measurement of lipid lowering effect in hamsters fed a high cholesterol diet; type: in vivo, Male Golden Syrian hamsters; details: for inhibition in vivo at 0.01 mg/kg / inhibition in vivo at 0.1 mg/kg: Mesocricetus auratus, po, 168 h, gavage once daily, 7 days
Summary of the method: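 Male Golden Syrian hamsters (6/group) on 0.5% cholesterol diet, dosed by gavage once daily in corn oil at 0.01 to 10 mg/kg; serum and liver sampled 4 h after last dose. TC, TG and LDL-C measured enzymatically; effects expressed as % suppression versus control and normal-diet groups.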

[2] = read-out: liver TC lowering effect (suppression rate of an increase in liver TC concentration)
[3] = read-out: serum LDL-C lowering effect (suppression rate of an increase in serum LDL-C concentration)
[4] = read-out: serum TC lowering effect (suppression rate of an increase in serum TC concentration)
[5] = dose 0.1 mg/kg, read-out: serum LDL-C lowering effect (suppression rate of an increase in serum LDL-C concentration)
[6] = dose 0.1 mg/kg, read-out: serum TC lowering effect (suppression rate of an increase in serum TC concentration)
[7] = dose 0.1 mg/kg, read-out: serum TG lowering effect (serum TG lowering rate)
[8] = dose 0.1 mg/kg, read-out: liver TC lowering effect (suppression rate of an increase in liver TC concentration)

Row | Compound | inhibition at 12.5 µM (Caco-2 cells) [%] | inhibition in vivo at 0.01 mg/kg [1, 2] [%] | inhibition in vivo at 0.01 mg/kg [1, 3] [%] | inhibition in vivo at 0.01 mg/kg [1, 4] [%] | inhibition at 10 µM (Caco-2 cells) [%] | inhibition in vivo at 0.1 mg/kg [1, 5] [%] | inhibition in vivo at 0.1 mg/kg [1, 6] [%] | inhibition in vivo at 0.1 mg/kg [1, 7] [%] | inhibition in vivo at 0.1 mg/kg [1, 8] [%] | a serum TC lowering effect at a dose of 0.1 mg/kg ([1]; Table 22, suppression rate of an increase in serum TC concentration, dose 0.1 mg/kg) [%]
1 | O=C1[C@H](SC[C@H](O)c2ccc(Cl)cc2)[C@@H](c2ccc(O)cc2)N1c1ccc(-c2cncc(Cl)c2)cc1 [Example 87, (3R,4R)-3-[(2R)-2-(4-chlorophenyl)-2-hydroxyethylthio]-1-[4-(5-chloropyridin-3-yl)phenyl]-4-(4-hydroxyphenyl)azetidin-2-one] | ≥ 60 | ≥ 30 | ≥ 30 | ≥ 30 | – | – | – | – | – | –
2 | CN(C)c1ccc(-c2ccc(N3C(=O)[C@H](SC[C@H](O)c4ccc(F)cc4)[C@H]3c3ccc(O)cc3)cc2)cn1 [Example 22, (3R,4R)-3-[(2R)-2-(4-fluorophenyl)-2-hydroxyethylthio]-1-[4-(6-dimethylaminopyridin-3-yl)phenyl]-4-(4-hydroxyphenyl)azetidin-2-one] | ≥ 60 | ≥ 30 | ≥ 30 | – | ≥ 50 | ≥ 50 | ≥ 50 | – | – | –
3 | Cc1ccncc1-c1ccc(N2C(=O)[C@H](SC[C@H](O)c3ccc(F)cc3)[C@H]2c2ccc(O)cc2)cc1 [Example 8, (3R,4R)-3-[(2R)-2-(4-fluorophenyl)-2-hydroxyethylthio]-4-(4-hydroxyphenyl)-1-[4-(4-methylpyridin-3-yl)phenyl]azetidin-2-one] | – | – | – | – | ≥ 50 | – | – | ≥ 20 | – | –
4 | O=C1[C@H](SC[C@H](O)c2ccc(F)cc2)[C@@H](c2ccc(O)cc2)N1c1ccc(-c2cncc(Cl)c2)cc1 [Example 56, (3R,4R)-3-[(2R)-2-(4-fluorophenyl)-2-hydroxyethylthio]-1-[4-(5-chloropyridin-3-yl)phenyl]-4-(4-hydroxyphenyl)azetidin-2-one] | – | ≥ 30 | ≥ 30 | ≥ 30 | ≥ 50 | – | – | – | ≥ 50 | –
5 | COc1ccc(-c2ccc(N3C(=O)[C@H](SC[C@H](O)c4ccc(F)cc4)[C@H]3c3ccc(O)cc3)cc2)c(OC)n1 [Example 7, (3R,4R)-3-[(2R)-2-(4-fluorophenyl)-2-hydroxyethylthio]-1-[4-(2,6-dimethoxypyridin-3-yl)phenyl]-4-(4-hydroxyphenyl)azetidin-2-one] | – | – | – | – | ≥ 50 | – | – | ≥ 20 | – | –
6 | O=C1[C@H](SC[C@H](O)c2ccc(F)cc2)[C@@H](c2ccc(O)cc2)N1c1ccc(-c2cncc(F)c2)cc1 [Example 55, (3R,4R)-3-[(2R)-2-(4-fluorophenyl)-2-hydroxyethylthio]-1-[4-(5-fluoropyridin-3-yl)phenyl]-4-(4-hydroxyphenyl)azetidin-2-one] | – | ≥ 30 | ≥ 30 | ≥ 30 | ≥ 50 | – | – | ≥ 20 | – | 130
7 | COc1ncccc1-c1ccc(N2C(=O)[C@H](SC[C@H](O)c3ccc(F)cc3)[C@H]2c2ccc(O)cc2)cc1 [Example 6, (3R,4R)-3-[(2R)-2-(4-fluorophenyl)-2-hydroxyethylthio]-4-(4-hydroxyphenyl)-1-[4-(2-methoxypyridin-3-yl)phenyl]azetidin-2-one] | ≥ 60 | – | – | – | – | – | ≥ 50 | ≥ 20 | – | –
8 | O=C1[C@H](SC[C@H](O)c2ccc(Cl)c(Cl)c2)[C@@H](c2ccc(O)cc2)N1c1ccc(-c2cccnc2)cc1 [Example 28, (3R,4R)-3-[(2R)-2-(3,4-dichlorophenyl)-2-hydroxyethylthio]-4-(4-hydroxyphenyl)-1-[4-(pyridin-3-yl)phenyl]azetidin-2-one] | – | – | – | – | ≥ 50 | – | ≥ 50 | – | ≥ 50 | –
9 | O=C1[C@H](SC[C@H](O)c2ccc3sccc3c2)[C@@H](c2ccc(O)cc2)N1c1ccc(-c2cccnc2)cc1 [Example 83, (3R,4R)-3-((2R)-2-benzo[b]thiophen-5-yl-2-hydroxyethylthio)-4-(4-hydroxyphenyl)-1-[4-(pyridin-3-yl)phenyl]azetidin-2-one] | ≥ 60 | – | – | – | – | ≥ 50 | ≥ 50 | – | – | –
